Structures are written as SMILES. “Also recorded” adds a separate entry of the source.

The assay has as its target T1, mammalian CaSR (Homo sapiens, UniProt P41180).
T1 construct: expressed in transfected cells; host or cells: HEK cells stably expressing the mammalian CaSR
T1 sequence (P41180 20-1078): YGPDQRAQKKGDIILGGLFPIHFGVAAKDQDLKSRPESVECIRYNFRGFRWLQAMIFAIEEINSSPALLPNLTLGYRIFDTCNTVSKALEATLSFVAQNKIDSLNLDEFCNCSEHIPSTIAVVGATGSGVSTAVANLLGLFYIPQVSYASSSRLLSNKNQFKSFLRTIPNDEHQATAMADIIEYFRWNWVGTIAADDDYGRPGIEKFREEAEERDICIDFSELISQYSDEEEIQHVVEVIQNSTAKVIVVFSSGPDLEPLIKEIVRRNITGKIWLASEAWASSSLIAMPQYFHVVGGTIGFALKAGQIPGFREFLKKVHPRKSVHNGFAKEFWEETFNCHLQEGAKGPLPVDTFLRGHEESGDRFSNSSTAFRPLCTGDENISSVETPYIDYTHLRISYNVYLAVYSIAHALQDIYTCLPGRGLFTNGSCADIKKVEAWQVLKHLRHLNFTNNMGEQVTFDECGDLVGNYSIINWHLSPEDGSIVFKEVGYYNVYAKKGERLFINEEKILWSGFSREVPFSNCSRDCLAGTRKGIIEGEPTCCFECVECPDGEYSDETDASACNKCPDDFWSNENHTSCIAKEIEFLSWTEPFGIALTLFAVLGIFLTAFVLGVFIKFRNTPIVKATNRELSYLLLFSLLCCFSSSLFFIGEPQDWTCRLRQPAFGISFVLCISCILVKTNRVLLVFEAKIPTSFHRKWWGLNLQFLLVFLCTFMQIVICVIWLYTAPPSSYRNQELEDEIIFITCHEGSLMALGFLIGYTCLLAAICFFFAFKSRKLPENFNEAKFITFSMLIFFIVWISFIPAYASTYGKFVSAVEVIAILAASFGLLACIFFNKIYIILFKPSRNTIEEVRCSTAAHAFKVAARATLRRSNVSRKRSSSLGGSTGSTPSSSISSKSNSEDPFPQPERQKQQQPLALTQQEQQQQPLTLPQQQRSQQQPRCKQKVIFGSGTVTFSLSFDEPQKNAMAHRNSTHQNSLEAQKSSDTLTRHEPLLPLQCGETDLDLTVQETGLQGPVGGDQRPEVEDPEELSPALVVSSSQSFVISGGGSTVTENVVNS
As to the kind of experiment: FURA2 ratio imaging fluorimetry of HEK cells stably expressing mammalian CaSR. It counts as cell-based. The text has this:
All methods and equipment utilized to perform experiments on HEK cells have been reported previously (Gama, L. and Breitwieser, G. E. 1998. A carboxyl-terminal domain controls the cooperativity for extracellular Ca2+ activation of the human calcium sensing receptor. A study with receptor-green fluorescent protein fusions. J. Biol. Chem. 273, 29712-29718; Bai, M., Quinn, S., Trivedi, S., Kifor, 0., Pearce, S. H., Pollak, M. R., Krapcho, K., Hebert, S. C. and Brown, E. M. 1996. Expression and characterization of inactivating and activating mutations in the human Ca2+o-sensing receptor. J. Biol. Chem. 271, 19537-19544). Untransfected HEK cells or, alternatively, cells transfected and expressing CaSR protein were cultured in Dulbecco's Modified Eagle Medium containing 10% fetal bovine serum and 1% penicillin-streptomycin in 75 cm^2 flasks until they reached confluence. Media was removed from the flasks and cells were loaded by exposure to Loading Buffer (125 mM NaCl, 4 mM KCl, 1.0 mMCaCl2, 1.0 mM MgCl2, 1 mM NaH2PO4, 20 mM HEPES, 1 gm/liter bovine serum albumin, and 1 gm/l glucose, pH ˜7.4, osmolality ˜285) containing 4.1 micromolar FURA2-AM (Molecular Probes Inc. Eugene, Oreg.) for 2 hr. Cells were then scraped from the surface of the flask using a standard cell scraper (Costar 3010, Corning Inc.). Cells were then pelleted from the suspension by low speed centrifugation to remove loading buffer and rinsed twice to remove extracellular FURA2 dye by two sequential suspensions and pelleting steps using low speed centrifugation. Immediately prior to the start of the experiment, cells were resuspended in various experimental buffers for analyses as described below. The Standard Experimental Buffer used for many studies was composed of: 125 mM NaCl, 4 mM KCl, 0.5 mMCaCl2, 0.5 mM MgCl2, 20 mM HEPES, 1 g/l glucose, pH ˜7.4, osmolality ˜285. All other buffers were variations on this basic composition where specific components within the Standard Experimental Buffer were varied while the remaining components were held constant.
Cell suspensions consisting of a total volume of 3 ml were analyzed in a PTI fluorimeter (PTI Model 814 Photomultiplier Detection System equipped with SC-500 Shutter Controller and PTI Driver and Analysis Software) within approximately 20 min after exposure to experimental buffers. Data was acquired using standard ratio image analysis as described previously using a data acquisition rate of 1.3 sec. for 500 or 1000 second intervals.
In selected experiments, the detergent Triton X-100 was added in order to lyse the cells and quantify differences in FURA2 ratio fluorescence. Triton X-100 was added to the cells to obtain a maximal fluorescence signal from the FURA2 for purposes of quantification.
Experiments on HEK cells were performed generally as described in Example 6 herein. […] Subsequent addition of Ca2+ to a final concentration of 5 mM produced an additional response (see FIG. 26A). No response was observed upon addition of 0.025% Mintrex Zn after the addition of experimental buffer (EB) (see FIG. 26B). […] In addition, the magnitude of the CaSR response to 5 mM Ca2+ was diminished by previous addition of Mintrex Zn.
For mammalian CaSR experiments, two individual aliquots from a single pool of HEK cells that stably express the recombinant mammalian CaSR protein were used for ratio imaging fluorimetry assays of CaSR activation generally as described in Example 6 herein. Addition of Ca++ to a final concentration of 2.5 mM produced a CaSR response that was also followed by responses after subsequent additions of 0.025% Zn proteinate followed by Ca++ to a final concentration of 7.5 mM (FIG. 29B). […] There was also a response to a subsequent dose of Ca++ to a final concentration of 7.5 mM (FIG. 29B). In both tracings, the detergent Triton X-100 was added as a final step to lyse the cells.
Experiments on HEK cells were performed generally as described in Example 6 herein. […]

In the case of `COc1cccc([C@@H](C)NCCCc2ccccc2)c1` [MC0100], the “effect of prior modulator on CaSR response to 0.025% Zn Proteinate” value (1 micromolar MC 0100) is recorded as “increased the response”. For the same molecule, under “1 micromolar MC0100 added before Mintrex Zn”, the “effect of prior modulator on CaSR response to 0.025% Mintrex Zn” value was “responded to 0.025% Mintrex Zn only after the addition of 1 micromolar MC0100”. Further, where the note is “MC0100 at final 1 micromolar”, the “CaSR response to the modulator itself” value is reported as “very small CaSR response; also recorded: did not itself produce a large response”. In addition, the “CaSR response to stepwise additions” value (after addition of 2.5 mM Ca++ (FIG. 37)) is “increased responses”. Besides, the “effect on Mintrex Zn-induced reduction of CaSR response to 5 mM Ca2+” value (previous addition of 1 micromolar MC0100) is on record as “partially restored”.

The values are drawn from patent publication US9351998B2, “Methods of nourishing animals” (MariCal, Inc., priority 2008, dated 2016).
